Results as given in patent US20020028804A1, “Cosmetic compositions containing substituted iminodibenzyl or fluorene derivatives” (Unilever Home & Personal Care USA, Division of Conopco, Inc., priority 2000, published 2002).
Where “and” joins values, the source holds several entries; their conditions need not be identical. Identical values can stand only once. Like-named read-outs stand apart in the source and are kept apart here.

Test system: human sebocytes
Assay: Sebum suppression: 14C-acetate incorporation in cultured human sebocytes
Type: cell-based
Conditions: for activity at 10 µM / activity at 100 µM / activity at 1 µM / activity at 0.1 µM: Homo sapiens
Description: Compounds A through H were tested for their potential to suppress sebum expression, alone or in the presence of a retinoid.
Secondary cultures of human sebocytes obtained from an adult […] were grown in 48-well tissue culture plates (Costar Corp.; Cambridge, Mass.) or 96-well tissue culture plates (Packard Co.; Meriden, Conn.) until confluent. Sebocyte growth medium consisted of Clonetics Keratinocyte Basal Medium (KBM) supplemented with 14 μg/ml bovine pituitary extract, 0.4 μg/ml hydrocortisone, 5 μg/ml insulin, 10 ng/ml epidermal growth factor, 1.2×10−10 M cholera toxin, 100 units/ml penicillin, and 100 μg/ml streptomycin. All cultures were incubated at 37° C. in the presence of 7.5% CO2. Medium was changed three times per week.
On the day of experimentation, the growth medium was removed and the sebocytes washed three times with sterile Dulbecco's Modified Eagle Medium (DMEM; phenol red free). Fresh DMEM was added to each sample (duplicates, triplicates, or quadruplicates depending on the experiment) with 5 microliter of test agent solubilized in ethanol either alone or in the presence of one or 10 micromolar of retinol. Controls consisted of addition of ethanol alone, retinol alone, or phenol red, which has estrogen-like activity and is included as a positive control.
Each plate was returned to the incubator for 20 hours followed by the addition of 14C-acetate buffer (5 mM final concentration, 56 mCi/mmol specific activity). Sebocytes were returned to the incubator for four hours after which each culture was rinsed three times with phosphate buffered saline to remove unbound label. Radioactive label remaining in the sebocytes was harvested and counted using a Beckman scintillation counter.

[1] = 10 μM test compound alone, read-out: % of Control
[2] = 100 μM test compound + 10 μM Retinol, read-out: % of Control
[3] = 100 μM test compound alone, read-out: % of Control
[4] = 1 μM test compound + 10 μM Retinol, read-out: % of Control
[5] = 1 μM test compound alone, read-out: % of Control
[6] = 10 μM test compound + 1 μM Retinol, read-out: % of Control
[7] = 10 μM test compound + 10 μM Retinol, read-out: % of Control
[8] = 100 μM test compound + 1 μM Retinol, read-out: % of Control
[9] = 1 μM test compound + 10 μM Retinol
[10] = 0.1 μM test compound + 1 μM Retinol, read-out: % of Control
[11] = 0.1 μM test compound + 10 μM Retinol, read-out: % of Control
[12] = 0.1 μM test compound alone, 14C-acetate label remaining in sebocytes, 20 h + 4 h, read-out: % of Control
[13] = 1 μM test compound + 1 μM Retinol, read-out: % of Control
[14] = 10 μM test compound + 10 μM Retinol

SMILES	% of Control (1 μM test compound alone, 1 µM)	activity at 10 µM [1] [%]	activity at 100 µM [2] [%]	activity at 100 µM [3] [%]	activity at 1 µM [4] [%]	activity at 1 µM [5] [%]	activity at 10 µM [6] [%]	activity at 100 µM [8] [%]	activity at 1 µM [13] [%]	further results
O=S1(=O)OC(c2ccc(O)cc2)(c2ccc(O)cc2)c2ccccc21 [Phenol Red, phenol red, reference compound]										% of Control (28 μM Phenol Red (positive control)): 95.3% and 74.7%; % of Control (280 μM Phenol Red (positive control)): 15.9%
O=C(CC1c2ccccc2-c2ccccc21)N1CCC(O)(c2ccccc2)CC1 [Compound G]	70.7%	67.7	0.6	2						
CC1=C(Cl)CCC=C1NC(=O)N1c2ccccc2CCc2ccccc21 [Compound D]		82.7	0.5	1.8	74.6	77.6	97.1	1.1		% of Control (1 μM test compound + 1 μM Retinol): 96.9%; activity at 10 µM [7]: 76.8%
CC1=C(/C=C/C(C)=C/C=C/C(C)=C/CO)C(C)(C)CCC1 [Retinol, retinol, reference compound]										% of Control (1 μM Retinol alone (control)): 98.1%; % of Control (10 μM Retinol alone (control)): 105.8%; activity at 1 µM (1 μM Retinol alone (control)): 96.5%
O=C(Nc1ccc(O)cc1)N1c2ccccc2CCc2ccccc21 [Compound C]	66.4%	56.1					37.4			% of Control [9]: 48.5%; activity at 0.1 µM [10]: 95.1%; activity at 0.1 µM [11]: 84.6%; activity at 0.1 µM [12]: 103%; sebum suppressive activity when combined with retinol (in the presence of retinol / a retinoid, versus compound alone): improved activity
CC(O)c1cccc(NC(=O)N2c3ccccc3CCc3ccccc32)c1 (stereo not shown) [Compound A]		91.3	0.6	2.1	93.2	85.7		1	82.8	
O=C(CC1c2ccccc2-c2ccccc21)N1CCC(O)(c2ccc(Cl)cc2)CC1 [Compound F]	90.2%					72.3				% of Control [14]: 27.0%; activity at 0.1 µM [10]: 92.8%; activity at 0.1 µM [11]: 83.6%; activity at 0.1 µM [12]: 95.8%; activity at 10 µM [7]: 16.7%
CCCN(CCO)C(=O)CC1c2ccccc2-c2ccccc21 [Compound H]	74.8% and 102.7%		27.2	79.8			76.6	67.6	86.4	% of Control [9]: 72.8% and 99.9%; % of Control [14]: 80.2% and 100.4%; % of Control (10 μM test compound alone, 10 µM): 74.6% and 111.7%; % of Control (100 μM test compound + 10 μM Retinol): 44.4%; % of Control (100 μM test compound alone, 100 µM): 73.6%
O=C(Nc1ccc(OC(F)(F)F)cc1)N1c2ccccc2CCc2ccccc21 [Compound B]		89.4	0.6	1.7	65.7	94.1		0.8	104	
